From patent US20080269202A1, “Novel 2,3-benzodiazepine derivatives and their use as antipsychotic agents” (Teva Pharmaceutical Industries Ltd., priority 2007, published 2008)

System: apomorphine-induced climbing
Assay: apomorphine-induced climbing test in mice
Format: in vivo, CD1 mice
Conditions: Mus musculus; mice, ip. 30 min before apomorphine 2 mg/kg s.c.; read-out: Climbing ED50 (mg/kg ip.)
Procedure: Anti-apomorphine effects were investigated in the climbing test in mice mediated through the mesolimbic and stereotypy test in rats mediated through the nigrostriatal system. Conventional antipsychotics antagonize both apomorphine-induced behaviours, while known atypical antipsychotics are weaker against apomorphine stereotypy.
The climbing test was carried out according to Protais et al. (Protais, P. et al. Psychopharmacologia, 1976, 50, 1.) Stereotyped behavior was induced in food deprived (for 16 hours) male CD1 mice weighing 20-25 g body by apomorphine HCl (SIGMA) in a s.c. dose of 2 mg/kg. Mice were placed individually into cylinders having 12 cm diameter and consisting of vertical bars of 2 mm diameter where apomorphine treated animals tended to adopt a vertical position in contrary to vehicle treated controls. Test substances were applied ip. 30 min before apomorphine.
10 and 20 min after apomorphine treatment the climbing behaviour was evaluated by scores of 0-2. 10 mice/group were used. The scores of the two readings were summed individually, meaned and compared to the control. The ED50 values were calculated by Litchfield-Wilcoxon's method (Litchfield Jr. J. T., Wilcoxon, F. J. Pharmacol. Exp. Ther. 1949, 96, 49,).

`COc1cc2c(cc1OC)C(c1ccc(N)cc1)=NN(c1nccs1)[C@H](C)C2` [Example 112] gave an ED50 of 25 mg/kg.

System: not given
Assay: not given
Conditions: not given

Compared with `COc1cc2c(cc1OC)C(c1ccc(N)cc1)=NN(c1nccs1)[C@H](C)C2` [Example 112], `COc1cc2c(cc1OC)C(c1ccc([N+](=O)[O-])cc1)=NN(c1nccs1)C(C)C2` (stereo not shown) [Example 1] is lower in melting point: 229 to 230 °C for the first, 195 to 197 °C for the second.

First: COc1cc2c(cc1OC)C(c1ccc([N+](=O)[O-])cc1)=NN(c1ncon1)C(C)C2 (stereo not shown) [Example 41]
Second: COc1cc2c(cc1OC)C(c1ccc(N)cc1)=NN(c1ncon1)C(C)C2 (racemic) [Example 155]
The melting point of the first is lower: 190 to 192 °C for the first, 227 to 229 °C for the second.

First: COc1cc2c(cc1OC)C(c1ccc(N)cc1)=NN(c1nc(C)cs1)C(C)C2 (racemic) [Example 137]
Second: COc1cc2c(cc1OC)C(c1ccc([N+](=O)[O-])cc1)=NN(c1nc(C)cs1)C(C)C2 (stereo not shown) [Example 6]
The melting point of the first is lower: 122 to 124 °C for the first, 194 to 195 °C for the second.

First: COc1cc2c(cc1OC)C(c1ccc(N)c(Cl)c1)=NN(c1ncon1)[C@H](C)C2 [Example 107]
Second: COc1cc2c(cc1OC)C(c1ccc(N)c(C)c1)=NN(c1ncon1)C(C)C2 (racemic) [Example 157]
The melting point of the first is lower: 108 to 110 °C for the first, 234 to 237 °C for the second.

First: CCNC(=O)N1N=C(c2ccc(N)c(C)c2)c2cc(OC)c(OC)cc2C[C@H]1C
Second: CNC(=O)N1N=C(c2ccc(N)c(C)c2)c2cc(OC)c(OC)cc2C[C@@H]1C
The melting point of the first is lower: 107 to 110 °C for the first, 157 to 159 °C for the second.

First: COc1cc2c(cc1OC)C(c1ccc([N+](=O)[O-])c(Cl)c1)=NN(c1nncs1)C(C)C2 (stereo not shown) [Example 22]
Second: COc1cc2c(cc1OC)C(c1ccc([N+](=O)[O-])c(C)c1)=NN(c1nncs1)C(C)C2 (stereo not shown) [Example 19]
The melting point of the first is higher: 203 to 206 °C for the first, 195 to 196 °C for the second.

Compared with `COc1cc2c(cc1OC)C(c1ccc([N+](=O)[O-])c(C)c1)=NN(c1noc(C)n1)C(C)C2` (stereo not shown) [Example 47], `COc1cc2c(cc1OC)C(c1ccc(N)c(C)c1)=NN(c1noc(C)n1)[C@H](C)C2` [Example 106] is lower in melting point: 206 to 208 °C for the first, 105 to 108 °C for the second.

First: CNC(=O)N1N=C(c2ccc(N)c(Cl)c2)c2cc(OC)c(OC)cc2CC1C (racemic)
Second: CNC(=O)N1N=C(c2ccc([N+](=O)[O-])c(Cl)c2)c2cc(OC)c(OC)cc2CC1C (stereo not shown) [75]
The melting point of the first is lower: 119 to 120 °C for the first, 194 to 195 °C for the second.

First: COc1cc2c(cc1OC)C(c1ccc(N)cc1)=NN(C(=O)N1CCOCC1)C(C)C2 (racemic) [Example 177]
Second: CONC(=O)N1N=C(c2ccc(N)cc2)c2cc(OC)c(OC)cc2C[C@H]1C [Example 135]
The melting point of the first is lower: 124 to 127 °C for the first, 143 to 145 °C for the second.

First: COc1cc2c(cc1OC)C(c1ccc([N+](=O)[O-])cc1)=NN(c1ncc(C)s1)C(C)C2 (stereo not shown) [Example 7]
Second: COc1cc2c(cc1OC)C(c1ccc([N+](=O)[O-])cc1)=NN(c1nnc(C)s1)C(C)C2 (stereo not shown) [Example 27]
The melting point of the first is lower: 122 to 123 °C for the first, 228 to 229 °C for the second.

First: COc1cc2c(cc1OC)C(c1ccc(N)cc1)=NN(C(=O)NC(C)C)C(C)C2 (racemic)
Second: CCNC(=O)N1N=C(c2ccc(N)cc2)c2cc(OC)c(OC)cc2C[C@H]1C
The melting point of the first is lower: 109 to 111 °C for the first, 122 to 124 °C for the second.

First: COc1cc2c(cc1OC)C(c1ccc(N)cc1)=NN(c1nncs1)[C@@H](C)C2 [Example 109]
Second: COc1cc2c(cc1OC)C(c1ccc(N)cc1)=NN(c1nnc(C)s1)C(C)C2 (racemic) [Example 145]
The melting point of the first is lower: 160 to 162 °C for the first, 220 to 222 °C for the second.

First: COc1cc2c(cc1OC)C(c1ccc(NC(C)=O)c(C)c1)=NN(c1nccs1)C(C)C2 (stereo not shown) [Example 182]
Second: COc1cc2c(cc1OC)C(c1ccc(NC(C)=O)c(Cl)c1)=NN(c1nccs1)[C@H](C)C2 [Example 186]
The melting point of the first is lower: 209 to 211 °C for the first, 213 to 215 °C for the second.

First: COc1cc2c(cc1OC)C(c1ccc(N)cc1)=NN(c1nc(C)n(C)n1)C(C)C2 (racemic) [Example 166]
Second: COc1cc2c(cc1OC)C(c1ccc(N)cc1)=NN(c1nc(C)n[nH]1)C(C)C2 (racemic) [Example 163]
The melting point of the first is higher: 243 to 246 °C for the first, 164 to 167 °C for the second.

First: CNC(=O)N1N=C(c2cccc([N+](=O)[O-])c2)c2cc(OC)c(OC)cc2CC1C (stereo not shown)
Second: CNC(=O)N1N=C(c2cccc(Cl)c2)c2cc(OC)c(OC)cc2CC1C (stereo not shown)
The melting point of the first is lower: 83 to 85 °C for the first, 90 to 91 °C for the second.

Compared with `CNC(=O)N1N=C(c2ccccc2)c2cc(OC)c(OC)cc2CC1C` (stereo not shown), `CNC(=O)N1N=C(c2ccccc2[N+](=O)[O-])c2cc(OC)c(OC)cc2CC1C` (stereo not shown) is higher in melting point: 86 to 88 °C for the first, 174 to 176 °C for the second.

First: CCOc1cc2c(cc1OCC)C(c1ccc([N+](=O)[O-])cc1)=NN(C(=O)NC)C(C)C2 (stereo not shown) [Example 93]
Second: CCNC(=O)N1N=C(c2ccc([N+](=O)[O-])cc2)c2cc(OC)c(OC)cc2CC1C (stereo not shown) [78]
The melting point of the first is lower: 188 to 189 °C for the first, 206 to 208 °C for the second.

Compared with `COc1cc2c(cc1OC)C(c1ccc([N+](=O)[O-])cc1)=NN(C(=O)N(C)C)C(C)C2` (stereo not shown), `COc1cc2c(cc1OC)C(c1ccc([N+](=O)[O-])cc1)=NN(c1nc(C)c(C)s1)C(C)C2` (stereo not shown) [Example 8] is higher in melting point: 92 to 96 °C for the first, 192 to 193 °C for the second.

First: COc1cc2c(cc1OC)C(c1ccc(N)cc1)=NN(c1nnc(C)o1)C(C)C2 (racemic) [Example 151]
Second: CCc1nnc(N2N=C(c3ccc(N)cc3)c3cc(OC)c(OC)cc3CC2C)s1 (racemic) [Example 146]
The melting point of the first is higher: 209 to 211 °C for the first, 208 to 209 °C for the second.

First: CNC(=O)N1N=C(c2cc(C)c([N+](=O)[O-])c(C)c2)c2cc(OC)c(OC)cc2CC1C (stereo not shown) [Example 77]
Second: CNC(=O)N1N=C(c2ccc(OC)c(OC)c2)c2cc(OC)c(OC)cc2CC1C (stereo not shown)
The melting point of the first is lower: 158 to 160 °C for the first, 185 to 186 °C for the second.

Compared with `COc1cc2c(cc1OC)C(c1ccc([N+](=O)[O-])cc1)=NN(c1nnco1)C(C)C2` (stereo not shown) [Example 29], `COc1cc2c(cc1OC)C(c1ccc([N+](=O)[O-])cc1)=NN(c1ncon1)C(C)C2` (stereo not shown) [Example 40] is lower in melting point: 225 to 229 °C for the first, 213 to 214 °C for the second.

First: COc1cc2c(cc1OC)C(c1ccc(N)c(Cl)c1)=NN(c1nncs1)C(C)C2 (racemic) [Example 148]
Second: COc1cc2c(cc1OC)C(c1ccc(N)c(C)c1)=NN(c1nncs1)C(C)C2 (racemic) [Example 147]
The melting point of the first is higher: 125 to 130 °C for the first, 108 to 110 °C for the second.

First: COc1cc2c(cc1OC)C(c1ccc([N+](=O)[O-])c(C)c1)=NN(c1nccs1)C(C)C2 (stereo not shown) [Example 3]
Second: COc1cc2c(cc1OC)C(c1ccc([N+](=O)[O-])c(C)c1)=NN(c1nncs1)C(C)C2 (stereo not shown) [Example 20]
The melting point of the first is lower: 145 to 147 °C for the first, 192 to 195 °C for the second.

Compared with `COc1cc2c(cc1OC)C(c1ccc(N)cc1)=NN(C1=NC(=O)C(C)S1)C(C)C2` (racemic) [Example 143], `COc1cc2c(cc1OC)C(c1ccc(N)cc1)=NN(C1=NC(=O)CS1)C(C)C2` (racemic) [Example 142] is lower in melting point: 184 to 188 °C for the first, 166 to 168 °C for the second.

First: CCCCNC(=O)N1N=C(c2ccc(N)cc2)c2cc(OC)c(OC)cc2CC1C (racemic)
Second: COc1cc2c(cc1OC)C(c1ccc(NC(C)=O)cc1)=NN(c1nncs1)C(C)C2 (stereo not shown) [Example 187]
The melting point of the first is higher: 204 to 207 °C for the first, 150 to 151 °C for the second.

Compared with `COc1cc2c(cc1OC)C(c1ccc([N+](=O)[O-])c(C)c1)=NN(c1nccs1)C(C)C2` (stereo not shown) [Example 4], `COc1cc2c(cc1OC)C(c1ccc([N+](=O)[O-])cc1)=NN(c1noc(C)n1)C(C)C2` (stereo not shown) [Example 48] is higher in melting point: 172 to 174 °C for the first, 197 to 199 °C for the second.

Compared with `COc1ccc(C2=NN(c3nncs3)C(C)Cc3cc(OC)c(OC)cc32)cc1OC` (stereo not shown) [Example 25], `COc1cc2c(cc1OC)C(c1ccc(F)cc1)=NN(C1=NOCS1)C(C)C2` (stereo not shown) [Example 36] is higher in melting point: 173 to 174 °C for the first, 186 to 191 °C for the second.
